Measurements taken from ChEMBL document CHEMBL1156829 (Proc Natl Acad Sci U S A, 2008).

What was measured:
[1] = NOVARTIS: Cytotoxicity against human hepatocellular carcinoma cell line (Huh7); type: toxicity, cell-based, Huh-7; details: Huh7 cells (hepatocellular carcinoma cell line)
[2] = system: Plasmodium falciparum; test: NOVARTIS: Inhibition of Plasmodium falciparum 3D7 (drug-susceptible) proliferation in erythrocyte-based infection assay; type: functional, organism-based; details: Plasmodium falciparum, 3D7
[3] = system: Plasmodium falciparum; test: NOVARTIS: Inhibition of Plasmodium falciparum W2 (drug-resistant) proliferation in erythrocyte-based infection assay; type: functional, organism-based; details: Plasmodium falciparum, W2; read-out: EC50

Structure (SMILES)	CC50 [1] [µM]	EC50 [2] [µM]	EC50 [3] [µM]
Cc1ccc(-c2cc(C)[n+](C)c(-c3ccc(C)cc3)c2)cc1	7.52	0.313	0.763
O=C(COc1cccc2ccccc12)NC1CCS(=O)(=O)C1 (configuration not stated)	> 100	> 12.5	1
Cc1ccc(C(=O)Nc2ccc(-c3nc4ccc(NC(=O)c5ccc(C)cc5)cc4[nH]3)cc2)cc1	1.89	1.57	> 5.78
COc1nccnc1NS(=O)(=O)c1ccc(NC(=O)c2cc3ccccc3oc2=O)cc1	> 10	> 1.25	> 0.428
Clc1cccc(CCNC2CCN(CCc3ccccc3)CC2)c1	12.4	0.17	0.651
COc1ccc(CC(=O)NCCCCNc2ccnc3cc(Cl)ccc23)cc1	4.5	0.55	0.345
C[n+]1ccc(C2OC2c2ccccc2)c2ccccc21 (configuration not stated)	> 10	1.38	1.74
CC(C)CNC(=O)c1cnc(NCCCN2CCCCC2C)nc1NC1CCCC1 (configuration not stated)	> 10	0.91	0.0528
COC(F)(C(=O)Nc1c(C)n(C)n(-c2ccccc2)c1=O)C(F)(F)F (configuration not stated)	> 9.06	1.55	> 1.1
O=C1[C@@H]2Cc3c([nH]c4ccccc34)C(CCc3ccccc3)N2C(=O)CN1CCc1c[nH]c2ccccc12 (some centres not stated)	> 100	2.81	1.05
O=C(Nc1ccccc1)C(=Cc1ccncc1)NC(=O)c1ccccc1	> 100	> 2.7	0.87
S=C(NC1CCCCC1)NC1CC2CCC(C1)N2Cc1ccccc1 (configuration not stated)	51.5	2.97	0.468
COc1ccccc1CNC(=O)c1nn(-c2ccc(Cl)cc2)c(=O)c2ccccc12	> 100	1.09	2.82
COc1ccc(-c2cc(C3CCN(c4nc(N)c5cc(OC)c(OC)cc5n4)CC3)n[nH]2)cc1OC	16.4	0.202	0.379
O=S(=O)(NCCCCNc1ccnc2cc(Cl)ccc12)c1ccc2ccccc2c1	6.41	0.268	0.00495
O=C1NCCN1C(=O)C(c1ccccc1)c1ccccc1	> 10	> 1.54	> 0.746
CN(C)CCn1cnc2sc3c(c2c1=O)CCC(NCc1cccc(Cl)c1)C3 (configuration not stated)	18.9	0.748	0.479
Cc1ccnc(NS(=O)(=O)c2ccc(NC(=O)C(C)C)cc2)n1	> 100	> 6.15	1.69
COCCCNC(=O)c1c(C)nc2scc(C)n12	> 10	> 1.08	> 1.45
O=C1C2C3c4ccccc4C(c4ccccc43)C2C(=O)N1CCO (configuration not stated)	> 100	> 12.5	3.7
CC(=O)OC1C(NC(=O)c2cc([N+](=O)[O-])c(N(C)C)c([N+](=O)[O-])c2)OC(C(=O)N2CCOCC2)C(OC(C)=O)C1OC(C)=O (configuration not stated)	> 10	> 1.09	> 1.25
COc1ccccc1CNc1ncc(C(=O)NCCCN2CCCC2=O)c(NCCc2ccccc2)n1	> 10	0.214	1.19
CC(CC(=O)Oc1ccccc1-c1nc2ccccn2c1NC(C)(C)CC(C)(C)C)CC(C)(C)C (configuration not stated)	0.796	0.242	0.0342

Structure (SMILES)	CC50 [1] [µM]	EC50 [2] [µM]	EC50 [3] [µM]
Oc1ccc(Br)c(C(Nc2ccccn2)c2ccc3cccnc3c2O)c1 (configuration not stated)	15.7	0.555	0.281
O=C(Nc1ccc(Cl)cc1)N1CCN(c2ccc3nncn3n2)CC1	> 100	2.06	1.38
COc1cc(-c2cc(C(F)(F)F)n3ncc(C(=O)Nc4cc(C)ccc4O)c3n2)cc(OC)c1OC	> 100	0.18	0.07
CCC(=O)N=c1sc2cc([N+](=O)[O-])ccc2n1CCOC	> 10	> 0.686	> 1.25
CCN1CCCC(Nc2ccnc3cc4ccccc4cc23)C1 (configuration not stated)	3.75	0.00824	0.00481
O=C(Nc1ccc(-c2nc3cc(NC(=O)c4ccc(Cl)cc4)ccc3[nH]2)cc1)c1ccc(Cl)cc1	83.8	0.993	> 12.5
CCn1c2ccccc2[n+]2c(C)cc(C)nc12	> 100	0.266	0.199
Cc1ccn2c(NC(C)(C)CC(C)(C)C)c(-c3ccccc3OC(=O)CCc3ccccc3)nc2c1	> 10	0.853	0.0186
CC(C)CN1C(=O)c2ccccc2C(C(=O)Nc2ccc(C(C)C)cc2)C1c1cccs1 (configuration not stated)	> 100	2.41	1.2
CN(CCCNc1ccnc2cc(Cl)ccc12)C(=O)c1ccc(C(C)(C)C)cc1	3.89	0.0812	0.0465
CCN(CC)CCN1C(=O)c2ccccc2NC1c1ccc(N(C)C)cc1 (configuration not stated)	> 100	0.285	0.157
COc1ccc(-c2ccc(C=NNC(=O)CNC(=O)c3ccc4c(c3)OCO4)o2)cc1Cl	> 10	> 0.375	> 1.25
CCOc1ccc(C2C(C(=O)OCCc3ccccc3)=C(C)NC3=C2C(=O)CC(C)(C)C3)cc1 (configuration not stated)	> 100	10.7	2.94
Nc1nnc(SCC(=O)Nc2nnc(SCC(=O)Nc3nccs3)s2)s1	> 10	> 1.25	> 0.738
CCN1/C(=C/C=C/c2oc3ccc4ccccc4c3[n+]2CC)Oc2ccc3ccccc3c21	> 10	> 1.25	0.578
Cc1cc(Nc2cccc3ccccc23)nc(Nc2cccc3ccccc23)n1	> 10	0.274	0.395
CCCCCCCCNC(C)C(O)c1ccc(SC(C)C)cc1 (configuration not stated) [SULOCTIDIL]	10.5	0.0824	0.603
CCC1CN2CCC1CC2C(O)c1ccnc2ccccc12 (configuration not stated)	> 100	0.299	0.627
Cc1nc([P+](c2ccccc2)(c2ccccc2)c2ccccc2)c(SCc2ccccc2)o1.[O-][Cl+3]([O-])([O-])[O-]	68.3	0.456	0.621
Cc1cc(C)n(CC(O)Cn2c3ccc(I)cc3c3cc(I)ccc32)n1 (configuration not stated)	> 100	1.19	0.296
COc1ccccc1-n1c(=O)c2c3c(sc2n2c(C)nnc12)CCC3	> 10	> 1.25	> 1.19
O=C(c1ccccc1)N1CCN(c2ccccc2NC(=O)C(Cl)(Cl)Cl)CC1	> 100	0.538	0.425
OC(CNCc1ccccc1)Cn1c2ccc(Br)cc2c2cc(Br)ccc21 (configuration not stated)	9.3	0.311	0.0135

Structure (SMILES)	CC50 [1] [µM]	EC50 [2] [µM]	EC50 [3] [µM]
COc1ccc2[nH]c(=O)c(CN(C(=S)Nc3ccccc3OC)C3CCCC3)cc2c1	> 100	0.995	0.824
CCOC(=O)C1=C(C)NC2=C(C(=O)C(C(=O)OC)C(C)C2)C1c1cc(Br)c(OC)c(OCC)c1 (configuration not stated)	> 100	0.7	0.0727
CCOC(=O)c1c(NC(=O)CSc2nc3c(c(=O)n(C)c(=O)n3C)n2C(C)C)sc2c1CCCC2	> 10	1.56	> 1.25
O=[N+]([O-])c1ccc(N2CCN(c3nc(NCCc4c[nH]c5ccccc45)c4ccccc4n3)CC2)cc1	14.3	0.171	1.99
O=c1oc(-c2ccccc2F)nc2sc3c(c12)CCCC3	> 100	> 12.5	1.57
C[C@H]1C[C@H](C)C(=O)[C@@H]([C@@H](O)CC2CC(=O)NC(=O)C2)C1	0.304	0.0216	0.0675
Brc1ccc(C=Cc2cc[n+](Cc3ccccc3)cc2)cc1	47.3	0.139	0.103
Clc1ccc2c(N3CCCC3)ccnc2c1	64.5	0.283	0.124
CCOc1ccc(NC(=O)CSc2nc3cc(OCC)ccc3[nH]2)cc1	> 13.8	0.9	> 1.25
CN1CCCC1CCNc1ncc(C(=O)NCc2ccccc2)c(NC2CCCC2)n1 (configuration not stated)	> 10	0.658	> 1.25
COc1ccc2nc(C)cc(Nc3ccc(Cl)cc3)c2c1	18.3	1.23	2.69
CCOc1ccc2c(C)nc(NC(N)=NC(C)=O)nc2c1	> 100	3.02	> 12.5
O=[N+]([O-])c1cc(C(F)(F)F)c(Cl)c([N+](=O)[O-])c1Nc1cc(C(F)(F)F)ccc1Cl	6.13	0.565	0.301
CC(=O)Nc1nc(-c2ccc(F)cc2)cs1	> 100	> 12.5	3.52
COc1cc(Br)c(C2CC(=O)Nc3ccc4ccccc4c32)cc1OC (configuration not stated)	34.4	0.386	0.307
CCN(CC)c1ccc(C2N(Cc3ccccc3)CCN2Cc2ccccc2)c(O)c1	23.6	2.36	2.82
O=C(Cn1c(-c2ccccc2)c[n+]2ccsc12)c1ccccc1	> 10	0.517	1.22
Cc1ccc(C(C(=O)NC2CCCCC2)N(C(=O)Cn2nnc3ccccc32)c2ccc(S(=O)(=O)NCC3CCCO3)cc2)o1 (configuration not stated)	> 100	> 12.3	1.91
CCCN(CCC)CCNC(=O)c1cc2c(-c3ccc(Cl)cc3)nn(C)c2s1	45.8	0.253	0.703
Cc1cc(C)nc(NC(=N)Nc2cccc(O)c2)n1	> 100	3.92	2.65
Cc1cccc(-n2c(CNC(=O)c3ccc(S(=O)(=O)N4CCCCC4)cc3)nnc2SCC(=O)Nc2nccs2)c1	67.1	4.2	2.17
COc1ccc(C=CC(=O)NC(=O)c2ccccc2O)cc1	> 73.5	0.132	0.479
CCN(CC)c1cc(-c2ccccn2)nc(-c2ccccn2)n1	> 10	0.578	0.418
